Results published in patent US20090170838A1, “Bicycloheteroaryl compounds as P2X7 modulators and uses thereof” (Renovis, Inc., priority 2005, published 2009).

Legend:
P2X7 receptor [1] = target: T1, P2X7 receptor (Homo sapiens, UniProt Q99572); test: Pore formation (Yo-Pro 1 uptake, BzATP-stimulated differentiated THP-1 cells); format: cell-based; conditions: at 0.3 μM (plus symbols)
T1 construct: host or cells: THP-1 cells differentiated with LPS and IFN-γ
T1 sequence (Q99572 1-595): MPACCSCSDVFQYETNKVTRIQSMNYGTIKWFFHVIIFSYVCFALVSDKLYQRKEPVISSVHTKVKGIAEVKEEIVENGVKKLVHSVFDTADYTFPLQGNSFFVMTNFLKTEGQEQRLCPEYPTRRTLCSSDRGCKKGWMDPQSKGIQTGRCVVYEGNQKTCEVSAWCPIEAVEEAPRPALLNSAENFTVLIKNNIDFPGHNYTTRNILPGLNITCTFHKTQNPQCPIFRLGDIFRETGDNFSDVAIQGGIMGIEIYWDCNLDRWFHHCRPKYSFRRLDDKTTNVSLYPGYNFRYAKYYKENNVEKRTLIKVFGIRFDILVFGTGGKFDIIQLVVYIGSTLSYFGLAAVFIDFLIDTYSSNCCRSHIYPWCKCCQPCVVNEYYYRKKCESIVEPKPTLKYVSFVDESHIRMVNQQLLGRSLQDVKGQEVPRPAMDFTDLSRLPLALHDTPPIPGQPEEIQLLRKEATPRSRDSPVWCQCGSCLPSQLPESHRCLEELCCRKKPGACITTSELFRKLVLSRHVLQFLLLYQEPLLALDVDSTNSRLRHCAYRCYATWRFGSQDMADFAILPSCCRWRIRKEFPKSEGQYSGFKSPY
Protocol: THP-1 cells (ATCC Cat # 285-IF-100) are plated in 96 well plates at a concentration of 200,000 cells per well and allowed to differentiate in RPMI-1640 media (ATCC Cat # 30-2001) containing 10% FBS, 100 IU/mL penicillin, 100 ug/mL streptomycin, 100 ng/mL LPS and 100 ng/mL IFN-γ for 16 hours. Following differentiation, the cells are pretreated with the compound of interest at the appropriate concentration for 30 minutes in RPMI-1640 media containing 100 IU/mL penicillin, 100 ug/mL streptomycin. The pretreatment media is then replaced with assay buffer (20 mM HEPES, 10 mM D-glucose, 118 mM NMDG, 5 mM KCl, 0.4 mM CaCl2) containing 5 uM Yo-Pro 1 (Molecular Probes Cat # Y3603) and the compound of interest at the appropriate concentration and the cells are incubated for an additional 10 minutes. 2′,3′-O-(4-benzoylbenzoyl)-adenosine 5′-triphosphate (Sigma Aldrich Cat# B6396) is then added to a final concentration of 40 uM and fluoroscence readings measured at 491/509 excitation/emission every minute for 50 minutes using a Tecan Safire plate reader. During this time temperature is maintained at of 37° C. Background adjusted fluorescence levels between drug treated and non-treated cells are used to calculate the percent inhibition.

P2X7 receptor [2] = target: T1, P2X7 receptor; test: IL-1β release assay (BzATP-stimulated, LPS/IFN-γ differentiated THP-1 cells, ELISA); format: cell-based; conditions: at 0.3 μM (plus symbols)
Method in brief: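 THP-1 cells were differentiated 16 h with LPS and IFN-γ (100 ng/mL each), then primed 2 h with fresh LPS. Compound pretreatment lasted 30 min, followed by 250 uM BzATP for 45 min. Supernatant IL-1β was measured by ELISA, and percent inhibition was calculated from background-adjusted levels.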

| inhibition at 0.3 µM (P2X7 receptor [1]) | inhibition at 0.3 µM (P2X7 receptor [2]) | SMILES |
| --- | --- | --- |
| ≥ 75% | ≥ 75% | O=C(CC12CC3CC(CC(C3)C1)C2)Nc1cccc2c(=O)n(CC3CCCO3)ccc12 (stereo not shown) [Compound 709] |
| ≥ 75% | ≥ 75% | O=C(CC12CC3CC(CC(C3)C1)C2)Nc1cccc2c1CCN(Cc1ccccc1)C2=O [Compound 702, 2-Adamantan-1-yl-N-(2-benzyl-1-oxo-1,2,3,4-tetrahydro-isoquinolin-5-yl)-acetamide] |
